Structures can show the parent of a compound that is named as a salt. Where two headings read alike, the source gives them in different places.
Assays:
SUDHL10 cells [1] = assay: Induction of cytotoxicity (CellTiter-Glo, 5 h), SUDHL10; conditions: Homo sapiens, SU-DHL10, 5 h, read-out: Cytotox SUDHL10 [M] (median), IC50, median; SUDHL10, 5 h
Protocol: Therefore, cytotoxicity assays were run in parallel in SUDHL5 and SUDHL10 cells.
The different cell lines were plated in culture medium (RPMI 1640 [GIBCO #22400-089] supplemented with 10% Fetal Bovine Serum) at a density of 3,300 cells in 30 μL/well in a sterile, solid black, flat bottom, polystyrene, TC-treated 384-well microplate (Corning #3571) using Multidrop Combi Reagent Dispenser. As a control, medium without cells was also added to the plate. Cells were incubated in a humidified incubator at 37° C. overnight. […] Rim wells were excluded. The cells were incubated for 5 h hours in a humidified incubator at 37° C. After this incubation, 30 μL of CellTiter-Glo® Luminescent Cell Viability reagent (Promega, G7573) was added to each well using the Multidrop Combi Reagent Dispenser, followed by 15 min incubation on a shaker at room temperature. Finally, luminescence was read at 0.1 ms, with a gain of 3000 using the PHERAstar FS microplate reader (BMG Labtech).

AMO-1 cells = assay: Antiproliferation assay (CellTiter-Glo, 72 h), AMO-1; type: cell-based; conditions: Homo sapiens, AMO1, 72 h, IC50, median; AMO-1, 72 h; read-out: Antiproli AMO-1 [M] median
Outline: (§1)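 Proliferation is determined by CellTiter-Glo luminescence following 72 h incubation with compound at 37 °C, relative to a time-zero plate measured at plating.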

DMS-114 cells = assay: Antiproliferation assay (CellTiter-Glo, 72 h), DMS-114; type: cell-based; conditions: Homo sapiens, DMS-114, 72 h; read-out: Antiproli DMS-114 [M] median
Protocol: (§2) Assessment of the Anti-Proliferative Effect of Compounds in Different Cell Lines
(§3) The impact of compounds on the proliferation of different cell lines was assessed using the CellTiter-Glo® Luminescent Cell Viability reagent from Promega (G7573).
(§4) In parallel, cells were plated in a reference (day 0) plate for time zero determination.
(§5) Rim wells were excluded. The cells were incubated for 72 h hours in a humidified incubator at 37° C. The day 0 plate was measured by adding 30 μL/well of CTG solution (CellTiter-Glo® Luminescent Cell Viability reagent, Promega G7573) to time zero wells in the reference plate followed by a 10 minutes incubation and luminescence reading at 0.1 ms. using the PHERAstar FS microplate reader (BMG Labtech).
(§6) After 72 h incubation, the treated plates were measured in the same way as the day 0 plate mentioned above.

SUDHL5 cells [2] = assay: Induction of caspase-3/7 activity (Caspase-Glo 3/7), SUDHL5; type: cell-based; conditions: EC50, median, SUDHL5, 3 h treatment
Outline: (§7)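 Apoptosis induction was gauged via caspase-3/7 activity (Caspase-Glo 3/7) following a 3 h compound incubation at 37 °C. Background from medium-only wells was removed from each value.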

SNU-389 cells = assay: Antiproliferation assay (CellTiter-Glo, 72 h), SNU-389; type: cell-based; conditions: 72 h; read-out: Antiproli SNU-389 [M] median
Protocol: as §2, §3, §4, §5, §6

SUDHL5 cells [3] = assay: Induction of cytotoxicity (CellTiter-Glo, 5 h), SUDHL5; conditions: SUDHL5, 5 h
SUDHL5 cells [4] = assay: Antiproliferation assay (CellTiter-Glo, 72 h), SUDHL5; type: cell-based; conditions: IC50, median, SUDHL5, 72 h, read-out: Antiproli SUDHL5 [M] (median)
Outline: as §1

SUDHL10 cells [5] = assay: Induction of caspase-3/7 activity (Caspase-Glo 3/7), SUDHL10; type: cell-based; conditions: Homo sapiens, SU-DHL10, 3 h, EC50, median; SUDHL10, 3 h treatment
Outline: as §7

HMC-1-8 cells = assay: Antiproliferation assay (CellTiter-Glo, 72 h), HMC-1-8; type: cell-based; conditions: 72 h, IC50, median; HMC-1-8, 72 h; read-out: Antiproli HMC-1-8 [M] median
Outline: as §1

[6] = Homo sapiens, SU-DHL-5, 5 h, read-out: Cytotox SUDHL5 [M] (median), IC50, median

Row | SMILES | IC50 (AMO-1 cells) [M] | IC50 (DMS-114 cells) [M] | IC50 (SNU-389 cells) [M] | EC50 (SUDHL10 cells [5]) [nM] | IC50 (HMC-1-8 cells) [M] | further results
1 | Cc1c2c(nn1C)CN(CC(F)(F)F)CCCCn1c(C(=O)O)c(CCCOc3cccc4cc(F)ccc34)c3ccc(Cl)c-2c31 (single isomer, unassigned; enantiomer 1) [Example 59, 4-chloro-7-{3-[(6-fluoronaphthalen-1-yl)oxy]propyl}-2,3-dimethyl-14-(2,2,2-trifluoroethyl)-10,11,12,13,14,15-hexahydro-2H-pyrazolo[3′,4′:8,9][1,6]diazacycloundecino[10,11,1-hi]indole-8-carboxylic acid—Enantiomer 1] | 1.5e-06 | 3.21e-06 | 3.79e-06 | 1000 | – | IC50 (SUDHL10 cells [1]): 1.2e-06 M; EC50 (SUDHL5 cells [2]): 350 nM; IC50 (SUDHL5 cells [3]; read-out: Cytotox SUDHL5 [M] (median), IC50, median): 8e-07 M; IC50 (SUDHL5 cells [4]): 1.1e-06 M
2 | CCOC(=O)c1c(CCCO[Si](C)(C)C(C)(C)C)c2ccc(Cl)c3c2n1CCCCCCc1nn(C)c(CC)c1-3 | – | – | – | – | – | ring closure, yield of all isomers (from CCOC(=O)c1[nH]c2c(-c3c(CCCCCCBr)nn(C)c3CC)c(Cl)ccc2c1CCCO[Si](C)(C)C(C)(C)C, amine bond, Cs2CO3, DMF, 71.8 mM): 99.5%
3 | CCc1c2c(nn1C)CN(CCOC)CCCCn1c(C(=O)O)c(CCCOc3cccc4cc(F)ccc34)c3ccc(Cl)c-2c31 (single isomer, unassigned; enantiomer 2) [Example 133, 4-chloro-3-ethyl-7-{3-[(6-fluoronaphthalen-1-yl)oxy]propyl}-14-(2-methoxyethyl)-2-methyl-10,11,12,13,14,15-hexahydro-2H-pyrazolo[3′,4′:8,9][1,6]diazacycloundecino[10,11,1-hi]indole-8-carboxylic acid N-ethylethanamine salt (Enantiomer 2)] | – | 3.85e-07 | 4.97e-07 | – | 1e-06 | –
4 | CCOC(=O)c1c(CCCOc2cccc3cc(F)ccc23)c2ccc(Cl)c3c2n1CC(F)(F)CCN(S(=O)(=O)c1ccccc1[N+](=O)[O-])Cc1nn(C)c(CC)c1-3 | – | – | – | – | – | ring closure, yield of all isomers (from CCOC(=O)c1[nH]c2c(-c3c(CN(CCC(F)(F)COS(=O)(=O)C(F)(F)F)S(=O)(=O)c4ccccc4[N+](=O)[O-])nn(C)c3CC)c(Cl)ccc2c1CCCOc1cccc2cc(F)ccc12, amine bond, NaH, DMF, 259.0 mM): 41.3%
5 | CCOC(=O)c1c(CCCOc2cccc3cc(F)ccc23)c2ccc(Cl)c3c2n1CCCCN(C)Cc1nn(C)c(CC)c1-3 | – | – | – | – | – | ring closure, yield of all isomers (from CCOC(=O)c1c(CCCOc2cccc3cc(F)ccc23)c2ccc(Cl)c(-c3c(CBr)nn(C)c3CC)c2n1CCCCNC, amine bond, cesium carbonate, DMF, 214.0 mM, 60.0 °C): 22%
6 | CCOC(=O)c1c(CCCOc2cccc3ccccc23)c2ccc(Cl)c3c2n1C[C@@H]1CC[C@@H]1COCc1nn(C)c(C)c1-3 | – | – | – | – | – | ring closure, yield of all isomers (from CCOC(=O)c1[nH]c2c(-c3c(COC[C@H]4CC[C@H]4CO)nn(C)c3C)c(Cl)ccc2c1CCCOc1cccc2ccccc12, amine bond, PPh3/di-tert-butyl azodicarboxylate, THF, 14.5 mM): 34.5%
7 | CCc1c2c(nn1C)COCCCCn1c(C(=O)O)c(CCCOc3cccc4cc(F)ccc34)c3ccc(Cl)c-2c31 (single isomer, unassigned; enantiomer 1) [Example 37, (+)-4-chloro-3-ethyl-7-{3-[(6-fluoronaphthalen-1-yl)oxy]propyl}-2-methyl-2,10,11,12,13,15-hexahydropyrazolo[4′,3′:9,10][1,6]oxazacycloundecino[8,7,6-hi]indole-8-carboxylic acid-N-ethylethanamine salt (Enantiomer 1)] | 3.6e-07 | 1.12e-06 | 1.05e-06 | 330 | 1.6e-06 | IC50 (SUDHL10 cells [1]): 4.3e-07 M
8 | CCOC(=O)c1c(CCCOc2cccc3cc(F)ccc23)c2ccc(Cl)c3c2n1CC(F)(F)CCOCc1nn(C)c(CC)c1-3 | – | – | – | – | – | ring closure, yield of all isomers (from CCOC(=O)c1[nH]c2c(-c3c(COCCC(F)(F)CO)nn(C)c3CC)c(Cl)ccc2c1CCCOc1cccc2cc(F)ccc12, amine bond, PPh3/di-tert-butyl azodicarboxylate (Mitsunobu), THF, 23.5 mM): 81.9%
9 | CCc1c2c(nn1C)CN(CCC1CCOCC1)CCCCn1c(C(=O)O)c(CCCOc3cccc4cc(F)ccc34)c3ccc(Cl)c-2c31 (single isomer, unassigned; enantiomer 1) [Example 136, 4-chloro-3-ethyl-7-{3-[(6-fluoronaphthalen-1-yl)oxy]propyl}-2-methyl-14-[2-(oxan-4-yl)ethyl]-10,11,12,13,14,15-hexahydro-2H-pyrazolo[3′,4′:8,9][1,6]diazacycloundecino[10,11,1-hi]indole-8-carboxylic acid N-ethylethanamine salt (Enantiomer 1)] | – | 2.35e-07 | 3.85e-07 | – | 7.3e-07 | –
10 | CCOC(=O)c1c(CCCOc2cccc3cc(F)ccc23)c2ccc(Cl)c3c2n1CCCCNCc1nn(C)c(C)c1-3 | – | – | – | – | – | ring closure, yield of all isomers (from CCOC(=O)c1c(CCCOc2cccc3cc(F)ccc23)c2ccc(Cl)c(-c3c(CBr)nn(C)c3C)c2n1CCCCN, amine bond, Cs2CO3, DMF, 205.0 mM, 60.0 °C): 6.6%
11 | CCOC(=O)c1c(CCCOc2cccc3cc(F)ccc23)c2ccc(Cl)c3c2n1CCC(F)(F)COCc1nn(C)c(CC)c1-3 | – | – | – | – | – | ring closure, yield of all isomers (from CCOC(=O)c1[nH]c2c(-c3c(COCC(F)(F)CCO)nn(C)c3CC)c(Cl)ccc2c1CCCOc1cccc2cc(F)ccc12, amine bond, triphenylphosphine / di-tert-butyl azodicarboxylate, THF): 72.9%
12 | CCc1nn(C)c2c1-c1c(Cl)ccc3c(CCCOc4cccc5cc(F)ccc45)c(C(=O)O)n(c13)CCOCCC2 [Example 125, (rac)-4-chloro-3-ethyl-7-{3-[(6-fluoro-1-naphthyl)oxy]propyl}-1-methyl-1,10,11,13,14,15-hexahydropyrazolo[4′,3′:7,8][1,4]oxazacycloundecino[6,5,4-hi]indole-8-carboxylic acid] | 1.9e-06 | – | – | 4600 | – | ring closure, yield of all isomers (from CCOC(=O)c1[nH]c2c(-c3c(CC)nn(C)c3CCCOCCO)c(Cl)ccc2c1CCCOc1cccc2cc(F)ccc12, amine bond, NaH, DMF, 55.64 mM, 40.0 °C, 3 steps): 76.1%; IC50 (SUDHL10 cells [1]): 5.4e-06 M; EC50 (SUDHL5 cells [2]; Homo sapiens, SU-DHL-5, 3 h): 1400 nM; IC50 (SUDHL5 cells [3]; [6]): 1.3e-06 M; IC50 (SUDHL5 cells [4]; Homo sapiens, SU-DHL-5, 72 h): 7.9e-06 M
13 | CCOC(=O)c1c(CCCOc2cccc3ccccc23)c2ccc(Cl)c3c2n1CC(F)(F)C(F)(F)COCc1nn(C)c(C)c1-3 | – | – | – | – | – | ring closure, yield of all isomers (from CCOC(=O)c1[nH]c2c(-c3c(COCC(F)(F)C(F)(F)COS(C)(=O)=O)nn(C)c3C)c(Cl)ccc2c1CCCOc1cccc2ccccc12, amine bond, Cs2CO3, DMF, 2.12 mM): 7.6%
14 | CCc1c2c(nn1C)CN(C)CCCCn1c(C(=O)O)c(CCCOc3cccc4ccccc34)c3ccc(Cl)c-2c31 (single isomer, unassigned; enantiomer 1) [Example 23, 4-chloro-3-ethyl-2,14-dimethyl-7-[3-(naphthalen-1-yloxy)propyl]-10,11,12,13,14,15-hexahydro-2H-pyrazolo[3′,4′:8,9][1,6]diazacycloundecino[10,11,1-hi]indole-8-carboxylic acid (Enantiomer 1)] | 6.1e-07 | 2.06e-06 | 1.7e-06 | 180 | 5.2e-06 | –
15 | CCc1c2c(nn1C)CCCOCCn1c(C(=O)O)c(CCCOc3cccc4cc(F)ccc34)c3ccc(Cl)c-2c31 (racemic) [Example 124, (rac)-4-chloro-3-ethyl-7-{3-[(6-fluoro-1-naphthyl)oxy]propyl}-2-methyl-2,10,11,13,14,15-hexahydropyrazolo[4′,3′:7,8][1,4]oxazacycloundecino[6,5,4-hi]indole-8-carboxylic acid] | 8.3e-07 | – | – | 1800 | 7e-06 | ring closure, yield of all isomers (from CCOC(=O)c1[nH]c2c(-c3c(CCCOCCO)nn(C)c3CC)c(Cl)ccc2c1CCCOc1cccc2cc(F)ccc12, amine bond, NaH, DMF, 47.5 mM, 40.0 °C, 3 steps): 63.1%; IC50 (SUDHL10 cells [1]): 2.4e-06 M; EC50 (SUDHL5 cells [2]; Homo sapiens, SU-DHL-5, 3 h): 950 nM; IC50 (SUDHL5 cells [3]; [6]): 1.1e-06 M; IC50 (SUDHL5 cells [4]; Homo sapiens, SU-DHL-5, 72 h): 4.4e-06 M
16 | CCOC(=O)c1c(CCCOc2cccc3cc(F)ccc23)c2ccc(Cl)c3c2n1CCN(S(=O)(=O)c1ccccc1[N+](=O)[O-])CCCc1nn(C)c(CC)c1-3 | – | – | – | – | – | ring closure, yield of all isomers (from CCOC(=O)c1[nH]c2c(-c3c(CCCN(CCOS(C)(=O)=O)S(=O)(=O)c4ccccc4[N+](=O)[O-])nn(C)c3CC)c(Cl)ccc2c1CCCOc1cccc2cc(F)ccc12, amine bond, NaH, DMF, 56.65 mM, 40.0 °C): 70.4%

Reference: US11478451B1, “Macrocyclic chlorine substituted indole derivatives” (Bayer Aktiengesellschaft, priority 2017, dated 2022)
